Assay results taken from ChEMBL document CHEMBL1743341, “Cytochrome p450 enzymes mechanism based inhibitors: common sub-structures and reactivity” (Curr Drug Metab, 2005).

Tests used:
CYP2B6 [1] = target: T1, CYP2B6 (Homo sapiens, UniProt P20813); experiment: (§1) Mechanism based inhibition of human cytochrome P450 2B6 measured by N-(3,5-dichloro-4-pyridyl)-3- (cyclopentoxy)-4- methoxybenzamide (DCMB) hydroxylase activity; format: ADME; details: human
T1 sequence (P20813 whole entry): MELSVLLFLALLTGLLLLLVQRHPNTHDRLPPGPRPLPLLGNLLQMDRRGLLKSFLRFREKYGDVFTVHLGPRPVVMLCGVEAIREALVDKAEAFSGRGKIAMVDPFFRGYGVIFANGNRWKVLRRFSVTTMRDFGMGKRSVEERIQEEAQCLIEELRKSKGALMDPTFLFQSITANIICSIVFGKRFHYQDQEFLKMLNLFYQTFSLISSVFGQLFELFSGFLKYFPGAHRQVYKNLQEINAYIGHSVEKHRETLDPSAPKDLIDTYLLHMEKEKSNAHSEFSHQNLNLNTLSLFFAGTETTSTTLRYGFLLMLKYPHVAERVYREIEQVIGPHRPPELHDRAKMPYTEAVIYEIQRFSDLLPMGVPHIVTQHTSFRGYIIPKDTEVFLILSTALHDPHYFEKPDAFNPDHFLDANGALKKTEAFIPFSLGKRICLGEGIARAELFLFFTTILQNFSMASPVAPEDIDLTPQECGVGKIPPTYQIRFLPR

Cytochrome P450 2B6 [2] = target: T2, Cytochrome P450 2B6 (Homo sapiens, UniProt P20813); experiment: as §1; format: ADME
T2 sequence (P20813 whole entry): T1 sequence (P20813 whole entry)

Cytochrome P450 2D6 [3] = target: T3, Cytochrome P450 2D6 (Homo sapiens, UniProt P10635); experiment: (§2) Mechanism based inhibition of human cytochrome P450 2D6 measured by bufurarol hydroxylation using liver microsomes; format: ADME, Microsome
T3 sequence (P10635 whole entry): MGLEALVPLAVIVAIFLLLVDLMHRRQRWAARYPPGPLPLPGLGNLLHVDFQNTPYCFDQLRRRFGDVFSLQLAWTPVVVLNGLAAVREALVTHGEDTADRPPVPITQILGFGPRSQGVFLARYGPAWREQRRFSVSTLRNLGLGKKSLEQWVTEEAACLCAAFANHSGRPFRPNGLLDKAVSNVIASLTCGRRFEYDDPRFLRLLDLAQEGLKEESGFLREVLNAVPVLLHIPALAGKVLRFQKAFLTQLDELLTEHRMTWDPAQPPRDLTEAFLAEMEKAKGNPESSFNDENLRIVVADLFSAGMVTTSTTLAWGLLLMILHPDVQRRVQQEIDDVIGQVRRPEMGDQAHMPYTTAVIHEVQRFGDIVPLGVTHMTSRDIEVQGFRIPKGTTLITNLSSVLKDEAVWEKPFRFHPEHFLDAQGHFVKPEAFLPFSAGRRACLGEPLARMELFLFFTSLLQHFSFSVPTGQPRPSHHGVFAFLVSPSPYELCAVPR

CYP2D6 [4] = target: T4, CYP2D6 (Homo sapiens, UniProt P10635); experiment: as §2; format: ADME, Microsome; details: probe bufurarol
T4 sequence (P10635 whole entry): as above

Cytochrome P450 3A4 [5] = target: T5, Cytochrome P450 3A4 (Homo sapiens, UniProt P08684); experiment: (§3) Mechanism based inhibition of human cytochrome P450 3A4 measured by DBF fluorescence; format: ADME
T5 sequence (P08684 whole entry): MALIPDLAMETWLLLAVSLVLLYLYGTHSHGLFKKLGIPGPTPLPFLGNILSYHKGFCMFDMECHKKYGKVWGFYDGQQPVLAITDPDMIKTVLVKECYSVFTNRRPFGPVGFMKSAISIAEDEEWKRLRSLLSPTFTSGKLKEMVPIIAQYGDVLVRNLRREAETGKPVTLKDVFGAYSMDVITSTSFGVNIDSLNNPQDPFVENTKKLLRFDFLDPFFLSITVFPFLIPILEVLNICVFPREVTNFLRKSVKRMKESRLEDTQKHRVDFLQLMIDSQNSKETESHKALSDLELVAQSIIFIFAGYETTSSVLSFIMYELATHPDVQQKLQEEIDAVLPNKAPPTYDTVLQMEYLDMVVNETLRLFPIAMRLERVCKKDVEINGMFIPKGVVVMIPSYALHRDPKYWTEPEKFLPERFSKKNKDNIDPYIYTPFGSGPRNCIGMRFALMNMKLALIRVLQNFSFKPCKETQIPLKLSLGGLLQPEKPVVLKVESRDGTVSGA

CYP3A4 [6] = target: T6, CYP3A4 (Homo sapiens, UniProt P08684); experiment: as §3; format: ADME; details: human, probe DBF
T6 sequence (P08684 whole entry): as above

Cytochrome P450 3A4 [7] = target: T5, Cytochrome P450 3A4; experiment: Mechanism based inhibition of human cytochrome P450 3A4, partition ratio; format: ADME
Cytochrome P450 2D6 [8] = target: T3, Cytochrome P450 2D6; experiment: (§4) Mechanism based inhibition of human cytochrome P450 2D6 measured by […] 1'-hydroxylation; format: ADME
CYP2D6 [9] = target: T4, CYP2D6; experiment: as §4; format: ADME; details: human, probe bufurarol
Cytochrome P450 3A4 [10] = target: T5, Cytochrome P450 3A4; experiment: (§5) Mechanism based inhibition of human cytochrome P450 3A4 measured by testosterone 6-beta hydroxylation; format: ADME
CYP3A4 [11] = target: T6, CYP3A4; experiment: as §5; format: ADME; details: human, probe testosterone (6-beta hydroxylation)
Cytochrome P450 3A4 [12] = target: T5, Cytochrome P450 3A4; experiment: (§6) Mechanism based inhibition of human cytochrome P450 3A4; format: ADME
Cytochrome P450 2C9 = Cytochrome P450 2C9 (Homo sapiens, UniProt P11712); experiment: Mechanism based inhibition of human cytochrome P450 2C9 measured by tienilic acid 5-hydroxylation; format: ADME
Sequence of Cytochrome P450 2C9 (P11712 whole entry): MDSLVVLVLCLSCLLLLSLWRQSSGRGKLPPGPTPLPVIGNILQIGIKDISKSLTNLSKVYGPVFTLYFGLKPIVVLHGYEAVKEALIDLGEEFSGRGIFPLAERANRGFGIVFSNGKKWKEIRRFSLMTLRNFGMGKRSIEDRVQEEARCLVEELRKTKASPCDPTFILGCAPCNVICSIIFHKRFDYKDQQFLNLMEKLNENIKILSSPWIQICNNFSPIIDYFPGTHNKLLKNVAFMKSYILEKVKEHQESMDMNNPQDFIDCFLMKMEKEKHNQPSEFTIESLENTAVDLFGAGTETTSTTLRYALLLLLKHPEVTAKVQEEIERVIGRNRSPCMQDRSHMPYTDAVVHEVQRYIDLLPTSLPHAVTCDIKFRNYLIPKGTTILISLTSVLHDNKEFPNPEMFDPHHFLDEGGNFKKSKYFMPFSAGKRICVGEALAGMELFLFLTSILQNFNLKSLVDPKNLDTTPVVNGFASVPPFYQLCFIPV

CYP2C8 [13] = target: T7, CYP2C8 (Homo sapiens, UniProt P10632); experiment: in vitro; details: human liver microsomes, probe paclitaxel
T7 sequence (P10632 whole entry): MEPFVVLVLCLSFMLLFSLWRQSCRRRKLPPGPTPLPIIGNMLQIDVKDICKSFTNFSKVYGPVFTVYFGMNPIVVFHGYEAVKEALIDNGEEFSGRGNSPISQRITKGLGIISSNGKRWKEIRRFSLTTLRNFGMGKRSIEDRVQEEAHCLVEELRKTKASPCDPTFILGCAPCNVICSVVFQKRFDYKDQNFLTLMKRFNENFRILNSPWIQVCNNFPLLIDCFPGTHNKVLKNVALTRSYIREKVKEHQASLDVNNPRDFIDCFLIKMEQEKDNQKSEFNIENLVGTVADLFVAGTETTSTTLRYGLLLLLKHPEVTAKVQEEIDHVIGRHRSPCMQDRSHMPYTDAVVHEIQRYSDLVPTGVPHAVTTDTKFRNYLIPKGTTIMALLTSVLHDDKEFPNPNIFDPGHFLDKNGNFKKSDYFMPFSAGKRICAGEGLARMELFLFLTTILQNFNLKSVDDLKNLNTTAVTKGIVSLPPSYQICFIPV
Description: (§10) Mechanism based inhibition of human cytochrome P450 2C8 measured by paclitaxel hydroxylation using human liver microsomes

Cytochrome P450 2C8 [14] = target: T8, Cytochrome P450 2C8 (Homo sapiens, UniProt P10632)
T8 sequence (P10632 whole entry): T7 sequence (P10632 whole entry)
Description: as §10

Cytochrome P450 2C8 [15] = target: T8, Cytochrome P450 2C8; remark: listed apart in the source
Description: (§11) Mechanism based inhibition of human cytochrome P450 2C8 measured by paclitaxel hydroxylation using a recombinant system

CYP2C8 [16] = target: T7, CYP2C8; experiment: in vitro; details: recombinant CYP2C8, probe paclitaxel
Description: as §11

Cytochrome P450 2D6 [17] = target: T3, Cytochrome P450 2D6; experiment: (§7) Mechanism based inhibition of human cytochrome P450 2D6 measured by dextromethorphan O-demethylation
CYP2D6 [18] = target: T4, CYP2D6; experiment: as §7; details: human, probe dextromethorphan
CYP2B6 [19] = target: T1, CYP2B6; experiment: (§8) Mechanism based inhibition of human cytochrome P450 2B6 using recombinant CYP2B6; details: human, recombinant CYP2B6
Cytochrome P450 2B6 [20] = target: T2, Cytochrome P450 2B6; experiment: as §8
CYP2B6 [21] = target: T1, CYP2B6; experiment: (§9) Mechanism based inhibition of human cytochrome P450 2B6 using human liver microsomes; details: human, human liver microsomes
Cytochrome P450 2B6 [22] = target: T2, Cytochrome P450 2B6; experiment: as §9
Cytochrome P450 3A4 [23] = target: T5, Cytochrome P450 3A4; experiment: as §6; format: ADME; remark: listed apart in the source
Cytochrome P450 3A4 [24] = target: T5, Cytochrome P450 3A4; experiment: Mechanism based inhibition of human cytochrome P450 3A4 measured by midazolam hydroxylation in vivo; format: ADME, organism-based

`C#CCOc1cc(C(=O)Nc2c(Cl)cncc2Cl)ccc1OC` was tested. Which kinact (CYP2B6 [1]) did it give?
Its kinact is 0.0015 s⁻¹.

What about the Ki (Cytochrome P450 2B6 [2]) of the same compound?
Its Ki is 5.1 µM.

`CCN(CC1CCN(S(C)(=O)=O)CC1)[C@@H](C)Cc1ccc2c(c1)CCO2` was tested. Which Ki (Cytochrome P450 2D6 [3]) did it give?
The Ki was 1.42 µM.

What about the kinact (CYP2D6 [4]) of the same compound?
Its kinact is 0.38 s⁻¹.

With `CC(O)CCC(=O)c1ccoc1` (stereo not drawn) as the compound, how does the Ki (Cytochrome P450 3A4 [5]) read?
The Ki was 20 µM.

What about the kinact (CYP3A4 [6]) of the same compound?
Its kinact is 0.0025 s⁻¹.

And the Partition ratio (Cytochrome P450 3A4 [7])?
Its Partition ratio is 257.

With `CC(C)(C)NC(=O)[C@@H]1CN(Cc2cnc3occc3c2)CCN1C[C@@H](O)C[C@@H](Cc1ccccc1)C(=O)N[C@H]1c2ccccc2C[C@H]1O` as the compound, how does the Ki (Cytochrome P450 2D6 [8]) read?
Its Ki is 32 µM.

And the kinact (CYP2D6 [9])?
The kinact was 0.003 s⁻¹.

And the Ki (Cytochrome P450 3A4 [10])?
Its Ki is 7.5 µM.

And the mechanism based inhibition (Cytochrome P450 3A4 [10])?
The mechanism based inhibition was “Cytochrome P450 mechanistic inhibitor: PMID 8531125”.

And the kinact (CYP3A4 [11])?
The kinact was 0.027 s⁻¹.

And the mechanism based inhibition (Cytochrome P450 3A4 [12])?
The mechanism based inhibition was “Cytochrome P450 mechanistic inhibitor: PMID 10757976”.

What about the Partition ratio (Cytochrome P450 3A4 [7]) of the same compound?
The Partition ratio was 1.4.

Which mechanism based inhibition (Cytochrome P450 2C9) does the source give for `O=C(O)COc1ccc(C(=O)c2cccs2)c(Cl)c1Cl` here?
Its mechanism based inhibition is “Cytochrome P450 mechanistic inhibitor: PMID 8944768”.

What does the source list for `CCCCc1oc2ccccc2c1C(=O)c1cc(I)c(OCCN(CC)CC)c(I)c1` [AMIODARONE]?
kinact (CYP2C8 [13]): 0.000483 s⁻¹; Ki (Cytochrome P450 2C8 [14]): 51.2 µM; Ki (Cytochrome P450 2C8 [15]): 1.5 µM; kinact (CYP2C8 [16]): 0.00132 s⁻¹

`CN/C(=N/CCSCc1nc[nH]c1C)NC#N` [CIMETIDINE] was tested. Which Ki (Cytochrome P450 2D6 [17]) did it give?
Its Ki is 77 µM.

And the kinact (CYP2D6 [18])?
The kinact was 0.0005 s⁻¹.

With `COC(=O)[C@H](c1ccccc1Cl)N1CCc2sccc2C1` [CLOPIDOGREL] as the compound, how does the kinact (CYP2B6 [19]) read?
The kinact was 0.0025 s⁻¹.

And the Ki (Cytochrome P450 2B6 [20])?
The Ki was 1.1 µM.

What about the kinact (CYP2B6 [21]) of the same compound?
The kinact was 0.00583 s⁻¹.

What about the Ki (Cytochrome P450 2B6 [22]) of the same compound?
The Ki was 0.5 µM.

`C#C[C@]1(O)C=C[C@H]2[C@@H]3CCC4=CC(=O)CC[C@@H]4[C@H]3CC[C@@]21CC` [GESTODENE] was tested. Which mechanism based inhibition (Cytochrome P450 3A4 [23]) did it give?
The mechanism based inhibition was “Cytochrome P450 mechanistic inhibitor: PMID 2133086”.

And the mechanism based inhibition (Cytochrome P450 3A4 [24])?
Its mechanism based inhibition is “Cytochrome P450 mechanistic inhibitor: PMID 11012556”.

What about the mechanism based inhibition (Cytochrome P450 3A4 [12]) of the same compound?
Its mechanism based inhibition is “Cytochrome P450 mechanistic inhibitor: PMID 9385444”.
